# From patent US11124508B2 (priority 2017, dated 2021)
row,Compound,melting point
1,"CC1(C)N=C(c2cnn3cc(Cl)ccc23)c2ccccc2C1(F)F [X.003, 1-(6-chloropyrazolo[1,5-a]pyridin-3-yl)-4,4-difluoro-3,3-dimethyl-isoquinoline]",113 to 118 °C
2,"Cc1c(Cl)ccc2c(C3=NC(C)(C)C(F)(F)c4ccccc43)cnn12 [X.001, 1-(6-chloro-7-methyl-pyrazolo[1,5-a]pyridin-3-yl)-4,4-difluoro-3,3-dimethyl-isoquinoline]",166 to 168 °C
3,"CC1(C)N=C(c2cnn3cc(Br)ccc23)c2ccccc2C1(F)F [X.006, 1-(6-bromopyrazolo[1,5-a]pyridin-3-yl)-4,4-difluoro-3,3-dimethyl-isoquinoline]",127 to 129 °C
4,"Cc1ccc2c(C3=NC(C)(C)C(F)(F)c4ccccc43)cnn2c1C [X.011, 1-(6,7-dimethylpyrazolo[1,5-a]pyridin-3-yl)-4,4-difluoro-3,3-dimethyl-isoquinoline]",160 to 161 °C
5,"Cc1ccc2c(C3=NC(C)(C)C(F)(F)c4ccccc43)cnn2c1 [X.005, 4,4-difluoro-3,3-dimethyl-1-(6-methylpyrazolo[1,5-a]pyridin-3-yl)isoquinoline]",105 to 107 °C
6,"Cc1c(Br)ccc2c(C3=NC(C)(C)C(F)(F)c4ccccc43)cnn12 [X.007, 1-(6-bromo-7-methyl-pyrazolo[1,5-a]pyridin-3-yl)-4,4-difluoro-3,3-dimethyl-isoquinoline]",180 to 182 °C

# The next lines start with the values.
row,melting point,Compound
1,175 to 176 °C,"Cc1ccc2c(C3=NC(C)(C)C(C)(C)c4c(F)cccc43)cnn2c1C [X.012, 1-(6,7-dimethylpyrazolo[1,5-a]pyridin-3-yl)-5-fluoro-3,3,4,4-tetramethyl-isoquinoline]"
2,134 to 136 °C,"Cc1cccc2c(C3=NC(C)(C)C(C)(C)c4c(F)cccc43)cnn12 [X.013, 5-fluoro-3,3,4,4-tetramethyl-1-(7-methylpyrazolo[1,5-a]pyridin-3-yl)isoquinoline]"
3,159 to 161 °C,"Cc1ccn2c(C3=NC(C)(C)C(F)(F)c4ccccc43)cnc2c1C [X.014, 1-(7,8-dimethylimidazo[1,2-a]pyridin-3-yl)-4,4-difluoro-3,3-dimethyl-isoquinoline]"
4,160 to 161 °C,"Cc1cccn2c(C3=NC(C)(C)C(C)(C)c4c(F)cccc43)cnc12 [X.019, 5-fluoro-3,3,4,4-tetramethyl-1-(8-methylimidazo[1,2-a]pyridin-3-yl)isoquinoline]"
5,185 to 186 °C,"Cc1ccn2c(C3=NC(C)(C)C(C)(C)c4c(F)cccc43)cnc2c1C [X.016, 1-(7,8-dimethylimidazo[1,2-a]pyridin-3-yl)-5-fluoro-3,3,4,4-tetramethyl-isoquinoline]"
